From PubChem BioAssay AID1963828 (Molecular Pharmacology Branch, DTP, NCI, 2024)
“And” between values parts separate entries of the source, which are not always exact repeats. Identical values can stand only once.

System: 991263-137-R1-J2-PDC complex spheroid viability
Assay: Anticancer human tumor 991263-137-R1-J2-PDC patient-derived colon adenocarcinoma cell line growth inhibition [POLQ]
Details: for viability, T/C: stronger effect = lower value
Description: Multicellular complex tumor spheroid response to Polymerase (POL) inhibitors (novobiocin, ART-558, RP6685) in combination with a variety of drugs and investigational agents in selected tumor cell lines
The POL inhibitors (novobiocin, ART-558, and RP6685) were evaluated both individually and in combination with standard of care and investigational anticancer small molecules within a complex spheroid model of solid tumors. . Complex spheroids include a stromal component modeled by human endothelial cells (HUVEC) and fibroblasts modeled by human mesenchymal stem cells (MSCs). The concentration ranges selected for each drug and investigational agent were based upon clinically achievable concentrations if the clinical Cmax of the agent was known.
Compounds. The drugs and investigational agents: novobiocin (NSC847541), ART-558 (NSC835418), RP-6685 (NSC848927), peposertib (NSC802822), ceralasertib (NSC780249), elimusertib (NSC800525), camonsertib (NSC841442), AZD-1390 (NSC803789), olaparib (NSC753686), talazoparib (NSC767125), rucaparib (NSC756644), sotorasib (NSC818433), MRTX-1133 (NSC836407), SN-38 (NSC673596), topotecan (NSC609699), epotoside (NSC141540), doxorubicin (NSC123127), gemcitabine (NSC613327), 5-fluorouracil (NSC19893), paclitaxel (NSC125973), vemurafenib (NSC761431), MSA-2 (NSC828583), SN-011 (NSC837082), adavosertib (NSC754352), prexasertib (NSC758257), carboplatin (NSC241240) and oxaliplatin (NSC266046), were obtained from the National Cancer Institute (NCI) Developmental Therapeutics Program Chemical Repository (21). The FDA-approved anticancer drug set is available from the Developmental Therapeutics Program at https://dtp.cancer.gov/organization/dscb/obtaining/. […] The stock solutions were prepared in dimethyl sulfoxide (DMSO, Sigma-Aldrich, St. Louis, MO, cat. D2650), except for the platinum compounds which were prepared in saline (Quality Biological, Gaithersburg, MD, cat. 114-055-101), at 800-fold the tested concentration and stored at -70 degrees C prior to their use. All drugs and investigational agents were tested over a range starting from a high concentration at or near the clinical Cmax and decreasing in half-log increments. If the clinical Cmax for an agent had not been determined, the highest concentration tested was 10 microM, except for SN-38, which was tested at a high concentration of 1 microM.
Cell Culture. All cells were maintained in an incubator at 37 degrees C and 5% CO2 with 95% humidity. The PDC lines were cultured according to standard operating procedures established by the NCI PDMR (https://pdmr.cancer.gov). Table 3 of the manuscript, lists the cell lines along with the number of the three cell types plated to form the mct-spheroids and media for tumor cell growth. After thawing, all PDC lines, except 997537-175-T-J1-PDC and 415267-285-R-J2-PDC, were cultured in Matrigel-coated flasks prepared with a working solution of 1X Ham's F-12 nutrient mix, without supplementation (Thermo Fisher Scientific, cat. 11765054), 100 U/mL penicillin-streptomycin (Thermo Fisher Scientific, cat. 15140122), and 2.5% Matrigel (Corning Inc., Corning, NY, cat. 354248) for the first three passages. The two PDC lines 997537-175-T-J1-PDC and 415267-285-R-J2-PDC were cultured on uncoated flasks. The 857933-349-R-J2-PDC line was cultured in 6C/Colon 1B media containing advanced DMEM/F-12 (Thermo Fisher Scientific, cat. 12634028), 10 mM HEPES (Thermo Fisher Scientific, cat. 15630080), 1X GlutaMAX supplement (Thermo Fisher Scientific, cat. 35050061), 0.1 mg/mL primocin (InvivoGen, San Diego, CA, cat. ant-pm-2), 10% defined fetal bovine serum, heat inactivated (HyClone Laboratories Inc., Logan, UT, cat. SH30070.03HI), 50% L-WRN conditioned media (ATCC, cat. CRL-3276), 1.25 mM N-Acetyl-L-cysteine (Sigma-Aldrich, cat. A9165), 10 mM nicotinamide (Sigma-Aldrich, cat. N0636), 1X B-27 supplement (Thermo Fisher Scientific, cat. 17504044), 1X N-2 supplement (Thermo Fisher Scientific, cat. […]

[1] = curve of first compound, second compound 0.0316 µM
[2] = curve of first compound, second compound 0.1 µM
[3] = curve of first compound, second compound 0.316 µM
[4] = curve of first compound, second compound 1 µM
[5] = curve of first compound, second compound 3.16 µM
[6] = curve of first compound, second compound 10 µM
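Note: spheroids exposed to compounds for 7 days before readout.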
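Throughout, for viability, T/C: 100% = DMSO vehicle control viability.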

## CC(=O)O[C@H]1C(=O)[C@@]2(C)[C@H]([C@H](OC(=O)c3ccccc3)[C@]3(O)C[C@H](OC(=O)[C@H](O)[C@@H](NC(=O)c4ccccc4)c4ccccc4)C(C)=C1C3(C)C)[C@]1(OC(C)=O)CO[C@@H]1C[C@@H]2O + Nc1ccc(C#CCN(C(=O)Cc2ncc(C(F)(F)F)cc2C(F)(F)F)c2ccc(F)cc2)nn1
[1]
  IC50: > 3 µM
[2]
  IC50: > 3 µM
[3]
  IC50: 2.53 µM
[4]
  IC50: > 3 µM
[5]
  IC50: > 3 µM
[6]
  IC50: > 3 µM
Second compound 0.0316 µM, first compound 0.00949 µM
  viability, T/C: 98.6%
Second compound 0.0316 µM, first compound 0.03 µM
  viability, T/C: 89.7%
Second compound 0.0316 µM, first compound 0.0949 µM
  viability, T/C: 84.9%
Second compound 0.0316 µM, first compound 0.3 µM
  viability, T/C: 77.8%
Second compound 0.0316 µM, first compound 0.949 µM
  viability, T/C: 55.3%
Second compound 0.0316 µM, first compound 3 µM
  viability, T/C: 56.6%
Second compound 0.1 µM, first compound 0.00949 µM
  viability, T/C: 93.9%
Second compound 0.1 µM, first compound 0.03 µM
  viability, T/C: 96.5%
Second compound 0.1 µM, first compound 0.0949 µM
  viability, T/C: 87.9%
Second compound 0.1 µM, first compound 0.3 µM
  viability, T/C: 85.8%
Second compound 0.1 µM, first compound 0.949 µM
  viability, T/C: 55.1%
Second compound 0.1 µM, first compound 3 µM
  viability, T/C: 50.9%
Second compound 0.316 µM, first compound 0.00949 µM
  viability, T/C: 93.9%
Second compound 0.316 µM, first compound 0.03 µM
  viability, T/C: 95.6%
Second compound 0.316 µM, first compound 0.0949 µM
  viability, T/C: 85.3%
Second compound 0.316 µM, first compound 0.3 µM
  viability, T/C: 80%
Second compound 0.316 µM, first compound 0.949 µM
  viability, T/C: 58%
Second compound 0.316 µM, first compound 3 µM
  viability, T/C: 48.9%
Second compound 1 µM, first compound 0.00949 µM
  viability, T/C: 92.5%
Second compound 1 µM, first compound 0.03 µM
  viability, T/C: 96.9%
Second compound 1 µM, first compound 0.0949 µM
  viability, T/C: 98%
Second compound 1 µM, first compound 0.3 µM
  viability, T/C: 66.4%
Second compound 1 µM, first compound 0.949 µM
  viability, T/C: 57.7%
Second compound 1 µM, first compound 3 µM
  viability, T/C: 51.7%
Second compound 3.16 µM, first compound 0.00949 µM
  viability, T/C: 90.2%
Second compound 3.16 µM, first compound 0.03 µM
  viability, T/C: 87.1%
Second compound 3.16 µM, first compound 0.0949 µM
  viability, T/C: 68.7%
Second compound 3.16 µM, first compound 0.3 µM
  viability, T/C: 60.6%
Second compound 3.16 µM, first compound 0.949 µM
  viability, T/C: 51.4%
Second compound 3.16 µM, first compound 3 µM
  viability, T/C: 50.6%
Second compound 10 µM, first compound 0.00949 µM
  viability, T/C: 84.6%
Second compound 10 µM, first compound 0.03 µM
  viability, T/C: 72%
Second compound 10 µM, first compound 0.0949 µM
  viability, T/C: 53.8%
Second compound 10 µM, first compound 0.3 µM
  viability, T/C: 58.1%
Second compound 10 µM, first compound 0.949 µM
  viability, T/C: 49.5%
Second compound 10 µM, first compound 3 µM
  viability, T/C: 50.2%

## COc1cccc2c1C(=O)c1c(O)c3c(c(O)c1C2=O)CC(O)(C(=O)CO)CC3OC1CC(N)C(O)C(C)O1 (stereo unspecified)
Compound 0.0316 µM
  viability, T/C: 103% and 95.2% and 99.9%
Compound 0.1 µM
  viability, T/C: 106% and 91% and 88.5%
Compound 0.316 µM
  viability, T/C: 77% and 85.2% (2×)
Compound 1 µM
  viability, T/C: 51% and 54.2% and 48.5%
Compound 3.16 µM
  viability, T/C: 29.6% and 40.6% and 40.8%
Compound 10 µM
  viability, T/C: 41.7% and 36.5% and 38.3%
Curve of compound
  IC50: 0.903 µM and 1.42 µM and 0.972 µM

## COc1cc2cc(C(=O)CCC(=O)O)sc2cc1OC + Nc1ccc(C#CCN(C(=O)Cc2ncc(C(F)(F)F)cc2C(F)(F)F)c2ccc(F)cc2)nn1
[1]
  IC50: > 10 µM
[2]
  IC50: > 10 µM
[3]
  IC50: > 10 µM
[4]
  IC50: > 10 µM
[5]
  IC50: > 10 µM
[6]
  IC50: > 10 µM
Second compound 0.0316 µM, first compound 0.0316 µM
  viability, T/C: 115%
Second compound 0.0316 µM, first compound 0.1 µM
  viability, T/C: 108%
Second compound 0.0316 µM, first compound 0.316 µM
  viability, T/C: 111%
Second compound 0.0316 µM, first compound 1 µM
  viability, T/C: 116%
Second compound 0.0316 µM, first compound 3.16 µM
  viability, T/C: 87.9%
Second compound 0.0316 µM, first compound 10 µM
  viability, T/C: 84.8%
Second compound 0.1 µM, first compound 0.0316 µM
  viability, T/C: 116%
Second compound 0.1 µM, first compound 0.1 µM
  viability, T/C: 115%
Second compound 0.1 µM, first compound 0.316 µM
  viability, T/C: 95.8%
Second compound 0.1 µM, first compound 1 µM
  viability, T/C: 98.7%
Second compound 0.1 µM, first compound 3.16 µM
  viability, T/C: 113%
Second compound 0.1 µM, first compound 10 µM
  viability, T/C: 93.8%
Second compound 0.316 µM, first compound 0.0316 µM
  viability, T/C: 97.1%
Second compound 0.316 µM, first compound 0.1 µM
  viability, T/C: 105%
Second compound 0.316 µM, first compound 0.316 µM
  viability, T/C: 102%
Second compound 0.316 µM, first compound 1 µM
  viability, T/C: 104%
Second compound 0.316 µM, first compound 3.16 µM
  viability, T/C: 95%
Second compound 0.316 µM, first compound 10 µM
  viability, T/C: 77.5%
Second compound 1 µM, first compound 0.0316 µM
  viability, T/C: 107%
Second compound 1 µM, first compound 0.1 µM
  viability, T/C: 103%
Second compound 1 µM, first compound 0.316 µM
  viability, T/C: 108%
Second compound 1 µM, first compound 1 µM
  viability, T/C: 96.8%
Second compound 1 µM, first compound 3.16 µM
  viability, T/C: 104%
Second compound 1 µM, first compound 10 µM
  viability, T/C: 86.6%
Second compound 3.16 µM, first compound 0.0316 µM
  viability, T/C: 106%
Second compound 3.16 µM, first compound 0.1 µM
  viability, T/C: 99.6%
Second compound 3.16 µM, first compound 0.316 µM
  viability, T/C: 105%
Second compound 3.16 µM, first compound 1 µM
  viability, T/C: 103%
Second compound 3.16 µM, first compound 3.16 µM
  viability, T/C: 105%
Second compound 3.16 µM, first compound 10 µM
  viability, T/C: 88.2%
Second compound 10 µM, first compound 0.0316 µM
  viability, T/C: 101%
Second compound 10 µM, first compound 0.1 µM
  viability, T/C: 96.6%
Second compound 10 µM, first compound 0.316 µM
  viability, T/C: 112%
Second compound 10 µM, first compound 1 µM
  viability, T/C: 94.7%
Second compound 10 µM, first compound 3.16 µM
  viability, T/C: 107%
Second compound 10 µM, first compound 10 µM
  viability, T/C: 82.1%
